For test [1], the system named is Salmonella. The test can be described thus: Salmonella positive samples, simulated USDA HACCP detection (Example 6). Format: cell-based, Salmonella enteritidis. The settings on record: for Salmonella Positive Samples (Number per 51): birds inoculated with Salmonella prior to chilling. On the procedure: The objective of this study was to determine the effect of Clorox® bleach and 1,3-dibromo-5,5-dimethylhydantoin (DBDMH) on individual carcass bacteria field strains after 1.5 hour in a chill tank solution and spoilage 20-day shelf life longevity (caused by bacteria contamination) in a Graded Level Study Model. After normal processing of 56-day-old birds, carcasses were immersed first in a warm bath containing 10^4 CFU's per mL Escherichia coli, 10^4 CFU's per mL Salmonella enteritidis, 10^4 CFU's per mL Pseudomonas aeruginosa, 10^4 CFU's per mL Campylobacter jejuni, and 10^4 CFU's per mL spoilage bacteria each from two strains (Listeria monocytogenes and Shigella sonnei). Carcasses were then immersed in a chill tank “soup”, containing normal organic fluids (blood, fat, skin, and meat particles) and containing various disinfectants (termed test materials). These tests were conducted at pH 8 (adjusted by trisodium phosphate). Skin pigmentation (Minolta Color Meter L value or Lightness, a value or redness and b value or yellowness) was determined before and after processing. Post-chilling skin bacteria of various strains were determined over a 20-day period. […] After salmonella infection in chill tanks, USDA HACCP salmonella detection was simulated and reported.
A DBDMH stock solution and DBDMH test solutions of the concentrations specified in Table 33, a bacteria stock solution, and a “chicken soup” were prepared as in Example 3. In addition, the bacterial broth treatments, the whole bird wash sampling procedure, and the methodologies used for quantitative or qualitative determinations for bacterial organisms were conducted as in Example 3.
The trial events and experimental design used in this group of tests were the same as in Example 5 with the following exceptions: • a) The temperature during the 20-day period of storage in the refrigerator was […]. • b) Observations of the degree of “bloating” (defined as water or air additions under the skin area considered objectionable) were conducted on all processed birds. • c) On each of sampling days 0, 2, 4, 6, 8, 10, 12, 14, 16, 18, and 20, ten carcasses from each treatment were analyzed by removing 23.8 cm^2 of skin from the breast right up to the neck using a template and a sterile scalpel. Each skin sample was placed in a bag with 15 mL Butterfield's Phosphate Buffer Solution (BPBS) added and treated in a Stomacher bag for 60 seconds. A 10-fold dilution series of the mixture was made in BPBS and two parallel samples of […] each were spread on the appropriate plate count agar for determination of the total viable numbers. The plates were incubated at 35° C. for 24 hours. Mean values were calculated from the two determinations of the three samples taken from each combination of chilling and storage. Bacterial numbers were reported as pooled or averaged log10 colony-forming units (CFU's) per square centimeter. • d) Also on sampling day 0, 102 total of the remaining 110 carcasses from each treatment (all bloating and oddly processed birds were removed) were “whole bird” washed by the sampling procedure described in Example 3. Salmonella detection were noted and reported as number of positive salmonella colonies per 51 birds and % of total.

Test [2] has as its system total aerobic bacteria. The test can be described thus: Whole bird total aerobic bacteria, chill tank soup at pH 7, 8, 9 (Example 3). Type of test: cell-based. The settings on record: 50 birds per treatment. On the procedure:
This group of tests was conducted to determine the effect of Clorox® bleach, Aquatize® biocide, and 1,3-dibromo-5,5-dimethylhydantoin (DBDMH) on carcass bacteria (Escherichia coli field strain) residual after 1,5-hour in a chill tank “soup”. Tests were conducted with soups at pH 7, pH 8 and pH 9 (adjusted by trisodium phosphate) for whole bird bacteria counts. Tests at pH 8 were conducted for individual bacteria counts.
In general the tests involved normal processing of 56-day-old birds and immersing the carcasses first in a warm bath containing 10^4 per mL Escherichia coli, 10^4 per mL Salmonella enteritidis, 10^4 per mL Pseudomonas aeruginosa, 10^4 per mL Campylobacter jejuni, and 10^4 per mL spoilage bacteria each from […] strains (Listeria monocytogenes and Shigella sonnei). The carcasses were then immersed in a chill tank “soup”, containing normal organic fluids (blood, fat, skin, and meat particles) and containing the microbiocides on the test.
The procedure used for whole bird wash sampling was as follows: • 1. All samples were kept at ≦50 degrees Fahrenheit following collection. • 2. Microbiological analyses of samples began within 24 hours of sample collection. • 3. Information on the individual sample identification, date of collection, time of collection (phase during shift), treatment group and location of sample point were recorded on each sample bottle. • 4. At each defined sample time, carcasses were taken individually from the processing line wearing latex or rubber gloves. The gloves were rinsed with alcohol between each collection. • 5. Any excess fluid was drained off from the carcass. Each individual carcass was transferred to a sterile stomacher bag. • 6. To each carcass contained in the sterile stomacher bag, 400 mL of Butterfield's Phosphate Diluent (BPD) was added while making sure to pour the BPD into the inside of the carcass cavity. The carcass was rinsed inside and out with a rocking motion for one minute (ca. 35 RPM). This was best done by grasping the broiler carcass with one hand and the closed top of the bag with the other then rocking with a reciprocal motion in a 18-24 inch arc, assuring that all surfaces (interior and exterior of the carcass) were rinsed. • 7. The rinse solutions from each stomacher bag was transferred into the sample bottles, taking care to ensure that the information on the date of collection, time of collection (phase during shift), treatment group and location of sampler point matched that of the sample. • 8. Each bottle was sealed with parafilm and placed into a styrene container with crushed or dry ice or frozen freezer packs for overnight delivery to a testing laboratory. • 9. All filled styrene containers were held in a chilled (not below freezing) area until within 1 to 2 hours of courier collection for shipment.
Aerobic plate counts—Counting rules according to BAM 8th ed., Chapter 3.
In greater detail the trial events and experimental design used in this group of tests were as follows: • a) Test microorganisms used were: • Escherichia coli ATCC 11229 • Pseudomonas aeruginosa ATCC 15442 • Salmonella enteritidis ATCC 13076 • Shigella sonnei ATCC 9290 • Listeria monocytogenes ATCC 7644 • Campylobacter jejuni ATCC 29428 • b) Test Procedure: All test strains were grown individually at 35° C. for 24 hours in the media specified in Table 12. Cells were harvested by centrifugation at 10,000×g for 10 minutes and washed twice with Butterfield's Phosphate Buffer (BPB of pH 7.2). Cells were resuspended in BPB to obtain a cell suspension of approximately 1.0×10^8 CFU/mL for each microorganism. The target inoculum levels were approximately 10^6 CFU/mL in the final test solutions. In the cases of S. enteritidis and P. aeruginosa the species were washed by pouring into prepared sterile centrifuge tubes with cheesecloth filters. […]

Molecules are shown by their SMILES.

As to `CC1(C)C(=O)N(Br)C(=O)N1Br` [DBDMH, 1,3-dibromo-5,5-dimethylhydantoin], the “Salmonella Positive Samples (Number per 51)” value in test [1] (5 ppm, control 32/51) is on record as 7/51; in test [1] (10 ppm), 4/51; in test [1] (15 ppm), 2/51; in test [1] (20 ppm) it was 1/51; in test [1] (25 ppm), 0/51. The “Salmonella Positive Samples (% of total)” value in test [1] (5 ppm, control 62.74%) is 13.73%; in test [1] (10 ppm), 7.84%; in test [1] (15 ppm) it was 3.92%; in test [1] (20 ppm), 1.96%; in test [1] (25 ppm), 0.00%. Moreover, the “Whole Bird Total Aerobic Bacteria (% Reduction)” value in test [2] (Water pH 7, 10 ppm Cl2 equivalent) was determined as 85%; in test [2] (Water pH 7, 20 ppm Cl2 equivalent) it was 99%; in test [2] (Water pH 8, 10 ppm Cl2 equivalent) it was 82%; in test [2] (Water pH 8, 20 ppm Cl2 equivalent), 98%; in test [2] (Water pH 9, 10 ppm Cl2 equivalent), 78%; in test [2] (Water pH 9, 20 ppm Cl2 equivalent) it was 96%.
